For orientation: inhibition means the drop in the measured response relative to a control, in per cent.

Counter-ions that a name gives are not always drawn.

For assay [1], the target named is T1, B1R receptor of the rat (rB1R) (Rattus norvegicus, UniProt P97583).
T1 construct: expressed in transfected cells; host or cells: CHO K1 cells
T1 sequence (P97583 1-337): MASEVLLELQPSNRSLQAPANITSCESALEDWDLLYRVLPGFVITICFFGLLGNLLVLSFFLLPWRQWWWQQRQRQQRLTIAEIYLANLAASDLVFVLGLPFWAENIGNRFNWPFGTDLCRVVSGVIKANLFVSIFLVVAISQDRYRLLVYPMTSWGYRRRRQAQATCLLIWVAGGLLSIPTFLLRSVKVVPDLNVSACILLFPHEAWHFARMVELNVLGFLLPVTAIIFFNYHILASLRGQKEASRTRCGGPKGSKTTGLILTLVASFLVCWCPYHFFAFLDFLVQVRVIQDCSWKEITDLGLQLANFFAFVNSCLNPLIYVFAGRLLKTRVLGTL
Put plainly: Functional investigation on the bradykinin 1 receptor (B1R), FLIPR Ca2+ assay, rB1R cells. The assay is classed as cell-based. The conditions noted are these: test substance 10 μM; CHO K1 cells transfected with rat B1R gene; Fluo-4 Ca2+ signal; agonist Des-Arg9-bradykinin at EC80; % of maximum achievable inhibition; read-out: B1R antagonism, rat [10 μM] % inhibition. In outline:
(§1)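 CHO K1 cells stably expressing human or rat B1R, Fluo-4 loaded, read by FLIPR (λex 488, λem 540 nm). Test compound (10 μM) first gave % activation against Lys-Des-[MUT]-bradykinin ≥50 nM (hB1R) or Des-[MUT]-bradykinin 10 μM (rB1R). After 10–20 min, agonist at EC80 was added; % inhibition or IC50 from concentration series, n=2–3, N≥2.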

Assay [2] has as its target T2, human B1R receptor (hB1R) (Homo sapiens, UniProt P46663).
T2 construct: expressed in transfected cells; host or cells: CHO K1 cells
T2 sequence (P46663 1-353): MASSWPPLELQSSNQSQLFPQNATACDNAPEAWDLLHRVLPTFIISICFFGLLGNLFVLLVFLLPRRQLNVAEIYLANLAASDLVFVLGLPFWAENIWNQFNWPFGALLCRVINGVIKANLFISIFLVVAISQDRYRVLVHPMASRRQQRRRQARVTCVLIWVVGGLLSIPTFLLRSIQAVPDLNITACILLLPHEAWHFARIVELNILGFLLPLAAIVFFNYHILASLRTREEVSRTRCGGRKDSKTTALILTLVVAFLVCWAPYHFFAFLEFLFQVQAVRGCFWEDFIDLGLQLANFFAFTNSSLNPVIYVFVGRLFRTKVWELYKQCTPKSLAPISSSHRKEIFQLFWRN
Put plainly: Functional investigation on the bradykinin 1 receptor (B1R), FLIPR Ca2+ assay, hB1R cells. The assay is classed as cell-based. The conditions noted are these: test substance 10 μM; CHO K1 cells transfected with human B1R gene; Fluo-4 Ca2+ signal; agonist Lys-Des-Arg9-bradykinin at EC80; % of maximum achievable inhibition; read-out: B1R antagonism, human [10 μM] % inhibition. Put shortly:
as §1

Turning to `O=S(=O)(CCC[C@@H]1CCCN1S(=O)(=O)c1ccc(Cl)cc1Cl)N1[C@@H]2CC[C@H]1C[C@H](Oc1ccncc1)C2` [Example 59, (1R,3R,5S)-8-(3-((S)-1-(2,4-Dichlorophenylsulfonyl)pyrrolidin-2-yl)propylsulfonyl)-3-(pyridin-4-yloxy)-8-azabicyclo[3.2.1]octane], the inhibition at 10 µM in assay [1] is 96%; in assay [2] it was 94%.

Take `Cc1cc(S(=O)(=O)N2CCC(CCS(=O)(=O)N3CCN(c4ccncc4)CC3)C2)c(C)cc1Cl` (stereo not drawn) [Example 23, 1-(2-(1-(4-Chloro-2,5-dimethylphenylsulfonyl)pyrrolidin-3-yl)ethylsulfonyl)-4-(pyridin-4-yl)piperazine]: the inhibition at 10 µM stood at 78% in assay [1] and 102% in assay [2].

Regarding `Cc1cc(S(=O)(=O)N2CCCCC2CCS(=O)(=O)N2CCN(C3CCN(C)CC3)CC2)c(C)cc1Cl` (stereo not drawn) [Example 38, 1-(2-(1-(4-Chloro-2,5-dimethylphenylsulfonyl)piperidin-2-yl)ethylsulfonyl)-4-(1-methylpiperidin-4-yl)piperazine dihydrochloride], the values for the inhibition at 10 µM in assay [1] and in assay [2] were 47% and 101%, respectively.
